{
  "source": "paper PMC8476002",
  "about": "“Bergamottin a CYP3A inhibitor found in grapefruit juice inhibits prostate cancer cell growth by downregulating androgen receptor signaling and promoting G0/G1 cell cycle block and apoptosis” (PLoS ONE, 2021)",
  "key": {"LNCaP cells [1]": {"system": "LNCaP cells", "assay": "MTT growth assay, LNCaP", "type": "cell-based", "conditions": "Homo sapiens", "procedure": "(§1) Growth of the cells was measured using a MTT assay. Cells were plated (2000 cells/ 96 well or 13,000 cells/ 24 well) for 48 hours then treated with bergamottin for 4 days (96 hours) and then incubated with MTT (3-(4,5-Dimethylthiazol- 2-yl)-2,5-Diphenyltetrazolium bromide) (4 mg/ml) for 2 h. at 37°C. DMSO (vehicle control for bergamottin) levels were compensated in each bergamottin treatment group. Cells were centrifuged at 2000 g for 10 min and the supernatant was discarded. The cell pellet was dissolved in 100/500 μl of DMSO depending on the well size. A plate reader was used to read the absorption at 540 nm. Experiments were performed in octuplet/quadruplet and repeated at least three times."}, "MDAPCa2b cells [2]": {"system": "MDAPCa2b cells", "assay": "MTT growth assay, MDAPCa2b", "type": "cell-based", "conditions": "Homo sapiens, MDA-PCa-2b", "procedure": "as §1"}, "[3]": {"system": "RWPE1 cells (non transformed prostate epithelium)", "assay": "MTT growth assay, RWPE1", "type": "cell-based, human", "procedure": "as §1"}, "[4]": {"system": "nuclear AR in LNCaP cells", "assay": "Cell fractionation, AR nuclear localization, LNCaP", "type": "cell-based, human", "conditions": "bergamottin 10μM, with and without DHT induction", "procedure": "(§2) Cells were plated at 25–30% confluence when maintained in complete media. When the cells required DHT tretment and media replacement to charcoal stripped serum media (CSSM) they were plated at 35–40% confluence. Bergamottin is dissolved in DMSO (vehicle control) and the amount of DMSO at each treatment group was kept constant. After the completion of the treatment cells were washed in phosphate buffer (PBS) containing 2mMEDTA and 2mM EGTA and lysed in RIPA buffer (50 mM TRIS, 150 mM NaCl, 1% NP40, 0.5% sodium deoxycholate, 0.1% SDS, 2mM EDTA, 2mM EGTA) supplemented with protease and phosphatase inhibitors for total protein isolation. Protein estimation was performed using micro BCA assay and equal protein amponts were loaded on SDS-PAGE gels for western analysis. GAPDH was used as an internal control for total protein. Infrared fluorescent-labeled secondary antibodies were used for detection using Odyssey CLx. The bands were quantified using Odyssey software, which calculates pixel density and automatically takes an area adjacent to each band for background corrections.\nNuclear and cytoplasmic cell fractionation was prepared using NE-PER Nuclear and cytoplasmic extraction kit from Thermo Scientific (Cat no.78833) and manufacturer’s instructions were followed. […]"}, "PSA in LNCaP cells": {"system": "PSA in LNCaP cells", "assay": "Western blotting of PSA, LNCaP", "type": "cell-based, human", "conditions": "10μM, 96 hours", "procedure": "as §2"}, "PSA in MDAPCa2b cells": {"system": "PSA in MDAPCa2b cells", "assay": "Western blotting of PSA, MDAPCa2b", "type": "cell-based, human", "conditions": "10μM, 96 hours", "procedure": "as §2"}, "LNCaP cells [5]": {"system": "LNCaP cells", "assay": "Cell cycle analysis (propidium iodide, flow cytometry), LNCaP", "type": "cell-based, human", "procedure": "Cell cycle analysis was performed after staining the cells with propidium iodide (PI). For long term bergamottin treatment (96 hrs.) cells were plated at 25–30% confluence and for short term bergamottin treatment (48 hrs.) they were plated at 30–35% confluence. After completion of specified treatment the cells were trypsinized washed with PBS and fixed in 70% ethanol and then stained with PI in nicoletti buffer (propidium iodide 50 μg/ml, 0.1% sodium citrate, 0.1% triton X-100, RNase 1 mg/ml, in DPBS). Cells were analyzed using C6 Accuri flow cytometer (Becton Dickinson, Mountainview, CA). FlowJo software was used to gate and remove the debris (gate on SSC and FSC) and aggregates (FL2 A and FL2H) from the analysis. Watson pragmatic and Dean-Jett -Fox methods was used to assign percentage frequencies to cells present in the different cell cycle stages."}, "LNCaP cells [6]": {"system": "LNCaP cells", "assay": "TUNEL apoptosis detection assay, LNCaP", "type": "cell-based, human", "conditions": "10μM, 4 days", "procedure": "(§3) To detect apoptosis in the cells after bergamottin treatment In Situ cell death detection kit from Sigma-Aldrich (St. Louis, MO) was used. This apoptosis detection kit fluorescently labels the single and double-stranded DNA breaks caused due to apoptosis using terminal deoxynucleotidyl transferase (TUNEL-reaction). The cells were plated in poly- D- lysine coated 35 mm Glass bottom dish (Cellvis catalog# D35C4-20-1.5-N), treated with bergamottin for the specified time, and dosage and then stained with the kit reagents. The kit recommended protocol was followed. After the staining, the confocal microscope was used to procure images of the cells. The TUNEL assay preferentially labels apoptosis in comparison to necrosis and positive apoptosis is recognized when cells incorporate fluorescent labelled nucleotide (Ex 450 to 500nm and Em 515 to 565-green)."}, "MDAPCa2b cells [7]": {"system": "MDAPCa2b cells", "assay": "TUNEL apoptosis detection assay, MDAPCa2b", "type": "cell-based, human", "conditions": "10μM, 4 days", "procedure": "as §3"}, "[8]": {"system": "PARP cleavage in MDAPCa2b cells", "assay": "Western blot of PARP cleavage, MDAPCa2b", "type": "cell-based, human", "conditions": "5 and 10 μM for 96 hrs. and 20 μM for 48 hrs.", "procedure": "as §2\nCells were plated in complete media without antibiotics on poly D-lysine-coated plates (80,000 cells per 6 well). […]"}, "[9]": {"system": "several other cancer cell types", "parameters": "method as in PMID 25130169, PMID 27222242, PMID 10552768, PMID 28726768, PMID 26911804", "conditions": "read-out: IC50 for growth of several other cancer cell types; cited from earlier work"}, "[10]": {"conditions": "treatment 96 hours (methods) / 120 hours (Fig 1 legend), read-out: bergamottin concentration giving 50% growth reduction"}},
  "data": [
    {"compound": "CC(C)=CCC/C(C)=C/COc1c2ccoc2cc2oc(=O)ccc12", "note": "[bergamottin]", "values": [
      {"measurement": "inhibition at 10 µM", "setting": "LNCaP cells [1]; 10μM", "value": 60, "unit": "%"},
      {"measurement": "IC50", "setting": "LNCaP cells [1]; [10]", "value": 2.4, "unit": "µM"},
      {"measurement": "inhibition at 10 µM", "setting": "MDAPCa2b cells [2]; 10μM", "value": 60, "unit": "%"},
      {"measurement": "IC50", "setting": "MDAPCa2b cells [2]; [10]", "value": 4, "unit": "µM"},
      {"measurement": "inhibition at 10 µM", "setting": "[3]; Homo sapiens, RWPE-1, RWPE1, 10μM", "value": 60, "unit": "%"},
      {"measurement": "effect on growth at lower concentration", "setting": "[3]; RWPE1, lower concentration", "value": "does not effect growth"},
      {"measurement": "nuclear translocation of AR (cell fractionation)", "setting": "[4]", "value": "inhibited nuclear translocation of AR"},
      {"measurement": "PSA levels", "setting": "PSA in LNCaP cells", "value": "significantly reduced PSA levels"},
      {"measurement": "PSA levels", "setting": "PSA in MDAPCa2b cells", "value": "significantly reduced PSA levels"},
      {"measurement": "G1 frequency, Dean-Jett-Fox", "setting": "LNCaP cells [5]; Berg 5μM, 96 hrs.", "value": "90.81 ±1.7", "unit": "%"},
      {"measurement": "G2 frequency, Dean-Jett-Fox", "setting": "LNCaP cells [5]; Berg 5μM, 96 hrs.", "value": "10.53 ±1.0", "unit": "%"},
      {"measurement": "G2 frequency, Watson Pragmatic", "setting": "LNCaP cells [5]; Berg 5μM, 96 hrs.", "value": "8.59 ±3.0", "unit": "%"},
      {"measurement": "S frequency, Dean-Jett-Fox", "setting": "LNCaP cells [5]; Berg 5μM, 96 hrs.", "value": "-0.3 ±2.3", "unit": "%"},
      {"measurement": "S frequency, Watson Pragmatic", "setting": "LNCaP cells [5]; Berg 5μM, 96 hrs.", "value": "0.32±4.3", "unit": "%"},
      {"measurement": "G1 frequency, Dean-Jett-Fox", "setting": "LNCaP cells [5]; Berg 10μM, 96 hrs.", "value": "95.1 ±3.4", "unit": "%"},
      {"measurement": "G2 frequency, Dean-Jett-Fox", "setting": "LNCaP cells [5]; Berg 10μM, 96 hrs.", "value": "0.22 ±0.4", "unit": "%"},
      {"measurement": "G2 frequency, Watson Pragmatic", "setting": "LNCaP cells [5]; Berg 10μM, 96 hrs.", "value": "10.07 ±0.9", "unit": "%"},
      {"measurement": "S frequency, Dean-Jett-Fox", "setting": "LNCaP cells [5]; Berg 10μM, 96 hrs.", "value": "-0.03 ±1.1", "unit": "%"},
      {"measurement": "S frequency, Watson Pragmatic", "setting": "LNCaP cells [5]; Berg 10μM, 96 hrs.", "value": "-1.17 ±4.5", "unit": "%"},
      {"measurement": "G1 frequency, Dean-Jett-Fox", "setting": "LNCaP cells [5]; Berg 20μM, 48 hrs.", "value": "86.7 ±2.3", "unit": "%"},
      {"measurement": "G2 frequency, Dean-Jett-Fox", "setting": "LNCaP cells [5]; Berg 20μM, 48 hrs.", "value": "15.3 ±1.0", "unit": "%"},
      {"measurement": "G2 frequency, Watson Pragmatic", "setting": "LNCaP cells [5]; Berg 20μM, 48 hrs.", "value": "13.4 ±4.3", "unit": "%"},
      {"measurement": "S frequency, Dean-Jett-Fox", "setting": "LNCaP cells [5]; Berg 20μM, 48 hrs.", "value": "-9.8 ±3.0", "unit": "%"},
      {"measurement": "S frequency, Watson Pragmatic", "setting": "LNCaP cells [5]; Berg 20μM, 48 hrs.", "value": "4.8 ±3.5", "unit": "%"},
      {"measurement": "G1 frequency, Dean-Jett-Fox", "setting": "LNCaP cells [5]; Berg 30μM, 48 hrs.", "value": "96.2 ±3.6", "unit": "%"},
      {"measurement": "G2 frequency, Dean-Jett-Fox", "setting": "LNCaP cells [5]; Berg 30μM, 48 hrs.", "value": "7.7 ±0.9", "unit": "%"},
      {"measurement": "G2 frequency, Watson Pragmatic", "setting": "LNCaP cells [5]; Berg 30μM, 48 hrs.", "value": "6.3 ±2.3", "unit": "%"},
      {"measurement": "S frequency, Dean-Jett-Fox", "setting": "LNCaP cells [5]; Berg 30μM, 48 hrs.", "value": "-8.4 ±4.5", "unit": "%"},
      {"measurement": "S frequency, Watson Pragmatic", "setting": "LNCaP cells [5]; Berg 30μM, 48 hrs.", "value": "3.7 ±2.6", "unit": "%"},
      {"measurement": "DNA breaks (TUNEL, apoptosis)", "setting": "LNCaP cells [6]", "value": "increased DNA breaks"},
      {"measurement": "DNA breaks (TUNEL, apoptosis)", "setting": "MDAPCa2b cells [7]", "value": "increased DNA breaks"},
      {"measurement": "PARP cleavage", "setting": "[8]", "value": "showed apoptosis (cleaved PARP)"},
      {"measurement": "IC50", "setting": "[9]", "value": "30 to 100", "unit": "µM"}
    ]}
  ]
}
